Columns and labels:
KG-1 cancer cells = assay: Cytotoxicity assay (WST-1), KG-1 cells; format: cell-based; details: Homo sapiens, 72 hours
Protocol: Cancer cells (KG-1) were seeded at a density of 10,000 cells per well in 96-well plates. The compound of the present disclosure and control compounds (Comparative Compounds 1, 2, and 3) were treated at predetermined concentrations. After 72 hours, the cells were treated with WST-1 reagent for 1 hour. Then, absorbance was read at 450 nm using a SpectraMax spectrophotometer to determine cell viability.

[1] = tested on: NCI-H1155 (lung cancer cells); assay: CytoX cell viability assay, NCI-H1155 cells; format: cell-based; details: 72 hours; for viability at 0.01 µM / viability at 0.5 µM: Homo sapiens
Protocol: The viability of NCI-H1155 (lung cancer cells) was measured using the CytoX cell viability assay kit (LPS Solution, #CYT3000). NCI-H1155 cells were seeded in a 12-well plate, and each compound of the present disclosure and a comparative compound (CC-90009) were treated at 10 nM and 500 nM concentrations for 72 hours. CytoX solution was then added to the cells and incubated for 1 hour.

Row | Compound | IC50 (KG-1 cancer cells) [nM] | viability at 0.01 µM ([1]; 10 nM) [%] | viability at 0.5 µM ([1]; 500 nM) [%] | other results
1 | O=C1CCC(N2Cc3cc(CNC(=O)c4ccc5cc(Cl)ccc5n4)ccc3C2=O)C(=O)N1 (stereo not shown) [compound 3, 6-chloro-N-((2-(2,6-dioxopiperidin-3-yl)-1-oxoisoindolin-5-yl)methyl)quinoline-2-carboxamide, reference compound] | 4100 |  |  | 
2 | Cc1cccc2c(C(=O)NCc3ccc4c(c3)CN(C3CCC(=O)NC3=O)C4=O)cc(-c3cccnc3)nc12 (stereo not shown) [Cpd. 10, N-((2-(2,6-dioxopiperidin-3-yl)-1-oxoisoindolin-5-yl)methyl)-8-methyl-2-(pyridin-3-yl)quinoline-4-carboxamide] |  | 3 | 4 | 
3 | CC(C)c1ccc(-c2cc(C(=O)NCc3ccc4c(c3)CN(C3CCC(=O)NC3=O)C4=O)c3ccccc3n2)cc1 (stereo not shown) [Cpd. 2, N-((2-(2,6-dioxopiperidin-3-yl)-1-oxoisoindolin-5-yl)methyl)-2-(4-isopropylphenyl)quinoline-4-carboxamide] | 1.5 |  |  | 
4 | O=C1CCC(N2Cc3cc(CNC(=O)C(F)(F)c4ccc(Cl)cc4)ccc3C2=O)C(=O)N1 (stereo not shown) [CC-90009, reference compound] |  |  |  | NCI-H1155 (% viability) at 10 nM ([1]; 10 nM): 85.0%; NCI-H1155 (% viability) at 500 nM ([1]; 500 nM): 23.25%
5 | O=C1CCC(N2Cc3cc(CNC(=O)c4cc(-c5ccc(F)cc5)nc5ccccc45)ccc3C2=O)C(=O)N1 (stereo not shown) [Cpd. 14, N-((2-(2,6-dioxopiperidin-3-yl)-1-oxoisoindolin-5-yl)methyl)-2-(4-fluorophenyl)quinoline-4-carboxamide] |  | 33 | 23 | 
6 | Cc1cccc2c(C(=O)NCc3ccc4c(c3)CN(C3CCC(=O)NC3=O)C4=O)cc(-c3ccccc3)nc12 (stereo not shown) [Cpd. 4, N-((2-(2,6-dioxopiperidin-3-yl)-1-oxoisoindolin-5-yl)methyl)-8-methyl-2-phenylquinoline-4-carboxamide] | 1 |  |  | 
7 | O=C1CCC(N2Cc3cc(CNC(=O)c4cc(Cl)nc5ccccc45)ccc3C2=O)C(=O)N1 (stereo not shown) [Cpd. 8, 2-chloro-N-((2-(2,6-dioxopiperidin-3-yl)-1-oxoisoindolin-5-yl)methyl)quinoline-4-carboxamide] |  | 86 | 23 | 
8 | Cc1ccccc1-c1cc(C(=O)NCc2ccc3c(c2)CN(C2CCC(=O)NC2=O)C3=O)c2ccccc2n1 (stereo not shown) [Cpd. 13, N-((2-(2,6-dioxopiperidin-3-yl)-1-oxoisoindolin-5-yl)methyl)-2-(o-tolyl)quinoline-4-carboxamide] |  | 32 | 26 | 
9 | Cc1c(-c2ccccc2)nc2ccccc2c1C(=O)NCc1ccc2c(c1)CN(C1CCC(=O)NC1=O)C2=O (stereo not shown) [Cpd. 12, N-((2-(2,6-dioxopiperidin-3-yl)-1-oxoisoindolin-5-yl)methyl)-3-methyl-2-phenylquinoline-4-carboxamide] |  | 59 | 24 | 
10 | O=C1CCC(N2Cc3cc(CNC(=O)c4cc5ccccc5cn4)ccc3C2=O)C(=O)N1 (stereo not shown) [compound 1, N-((2-(2,6-dioxopiperidin-3-yl)-1-oxoisoindolin-5-yl)methyl)isoquinoline-3-carboxamide, reference compound] | > 10000 |  |  | 
11 | Cc1ccc2nc(-c3ccccc3)cc(C(=O)NCc3ccc4c(c3)CN(C3CCC(=O)NC3=O)C4=O)c2c1 (stereo not shown) [Cpd. 3, N-((2-(2,6-dioxopiperidin-3-yl)-1-oxoisoindolin-5-yl)methyl)-6-methyl-2-phenylquinoline-4-carboxamide] | 14 |  |  | 
12 | O=C1CCC(N2Cc3cc(CNC(=O)c4ccnc5ccccc45)ccc3C2=O)C(=O)N1 (stereo not shown) [Cpd. 9, N-((2-(2,6-dioxopiperidin-3-yl)-1-oxoisoindolin-5-yl)methyl)quinoline-4-carboxamide] |  | 88 | 25 | 
13 | O=C1CCC(N2Cc3cc(CNC(=O)c4cc(-c5ccccc5F)nc5ccccc45)ccc3C2=O)C(=O)N1 (stereo not shown) [Cpd. 15, N-((2-(2,6-dioxopiperidin-3-yl)-1-oxoisoindolin-5-yl)methyl)-2-(2-fluorophenyl)quinoline-4-carboxamide] |  | 31 | 26 | 
14 | O=C1CCC(N2Cc3cc(CNC(=O)c4cc(-c5ccncc5)nc5ccccc45)ccc3C2=O)C(=O)N1 (stereo not shown) [Cpd. 7, N-((2-(2,6-dioxopiperidin-3-yl)-1-oxoisoindolin-5-yl)methyl)-2-(pyridin-4-yl)quinoline-4-carboxamide] |  | 50 | 5 | 
15 | O=C1CCC(N2Cc3cc(CNC(=O)c4cnc5ccccc5n4)ccc3C2=O)C(=O)N1 (stereo not shown) [compound 2, N-((2-(2,6-dioxopiperidin-3-yl)-1-oxoisoindolin-5-yl)methyl)quinolxaline-2-carboxamide, reference compound] | > 10000 |  |  | 
16 | O=C1CCC(N2Cc3cc(CNC(=O)c4cc(-c5ccccc5)nc5ccccc45)ccc3C2=O)C(=O)N1 (stereo not shown) [Cpd. 1, N-((2-(2,6-dioxopiperidin-3-yl)-1-oxoisoindolin-5-yl)methyl)-2-phenylquinoline-4-carboxamide] | 0.8 |  |  | 
